From US20070134261A1, “Effectors of innate immunity” (priority 2001, published 2007)
“And” between values parts separate entries of the source, which are not always exact repeats. Equal entries are not always repeated. Where two headings read alike, the source gives them in different places.

Tests used:
whole human blood = type: cell-based; conditions: 4 hr (0 μg/ml: 3205)
[1] = system: human A549 epithelial cells; assay: Resgen Human cDNA arrays (PRHU03-S3) of A549 cells treated with peptide (Tables 21-26); conditions: 50 μg/ml, 4 h

CC[C@H](C)[C@H](N)C(=O)N[C@@H](CC(C)C)C(=O)N1CCC[C@H]1C(=O)N[C@@H](Cc1c[nH]c2ccccc12)C(=O)N[C@@H](CCCCN)C(=O)N[C@@H](Cc1c[nH]c2ccccc12)C(=O)N1CCC[C@H]1C(=O)N[C@@H](Cc1c[nH]c2ccccc12)C(=O)N[C@@H](Cc1c[nH]c2ccccc12)C(=O)N1CCC[C@H]1C(=O)N[C@@H](Cc1c[nH]c2ccccc12)C(=O)N[C@@H](CCCNC(=N)N)C(=O)N[C@@H](CCCNC(=N)N)C(N)=O [SEQ ID NO: 2]
IL-8 (whole human blood; 10 μg/ml peptide + E. coli O111:B4 LPS): 1912 pg/mL | IL-8 (whole human blood; 50 μg/ml peptide + E. coli O111:B4 LPS): 1458 pg/mL | Ratio Peptide:Unstimulated, catenin (cadherin-associated protein), delta 1 ([1]; AA025276): 1.2 | Ratio Peptide:Unstimulated, integrin, beta 3 ([1]; AA037229): 2.7 | Ratio Peptide:Unstimulated, Epstein-Barr virus induced polynucleotide 2 ([1]; AA037376): 1.6 | Ratio Peptide:Unstimulated, disintegrin and metalloproteinase domain 10 ([1]; AA043347): 1.5 | Ratio Peptide:Unstimulated, MAP kinase kinase kinase kinase 3 ([1]; AA043537): 0.45 | Ratio Peptide:Unstimulated, protein tyrosine phosphatase, receptor type, J ([1]; AA045326): 3.6 | Ratio Peptide:Unstimulated, MAP kinase kinase kinase 12 ([1]; AA053674): 0.20 | Ratio Peptide:Unstimulated, integrin, alpha 7 ([1]; AA055979): 0.57 | Ratio Peptide:Unstimulated, leukocyte immunoglobulin-like receptor, subfamily B (with TM and ITIM domains), member 4 ([1]; AA076350): 0.75 | Ratio Peptide:Unstimulated, phospholipase A2 receptor 1 ([1]; AA086038): 2.8 | Ratio Peptide:Unstimulated, IL-8 ([1]; AA102526): 3.6 | Ratio Peptide:Unstimulated, cadherin 11, type 2, OB-cadherin (osteoblast) ([1]; AA136983): 0.23 | Ratio Peptide:Unstimulated, TNF R superfamily, member 1B ([1]; AA150416, listed as ID 2): 18 and 17.09 | Ratio Peptide:Unstimulated, MAP kinase 9 ([1]; AA157286): 0.57 | Ratio Peptide:Unstimulated, macrophage stimulating 1 R ([1]; AA173454): 1.7 | Ratio Peptide:Unstimulated, killer cell lectin-like receptor subfamily C, member 2 ([1]; AA190627): 9.7 | Ratio Peptide:Unstimulated, TNF R superfamily, member 11b ([1]; AA194983, listed as ID 2): 5.3 and 5.29 | Ratio Peptide:Unstimulated, disintegrin and metalloproteinase domain 8 ([1]; AA279188): 3.1 | Ratio Peptide:Unstimulated, BCL2-interacting killer (apoptosis-inducing) ([1]; AA291323): 1.9 | Ratio Peptide:Unstimulated, disintegrin-like and metalloprotease with thrombosondin type 1 motif, 3 ([1]; AA398492): 0.32 | Ratio Peptide:Unstimulated, MAP kinase kinase kinase 4 ([1]; AA402447): 0.37 | Ratio Peptide:Unstimulated, prostaglandin E receptor 3 (subtype EP3) ([1]; AA406362): 4.1 | Ratio Peptide:Unstimulated, MAP kinase kinase kinase kinase 4 ([1]; AA417711): 0.96 | Ratio Peptide:Unstimulated, MAP kinase 8 interacting protein 2 ([1]; AA418293): 0.07 | Ratio Peptide:Unstimulated, integrin, alpha 3 (antigen CD49C, alpha 3 subunit of VLA-3 receptor) ([1]; AA424695): 0.8 | Ratio Peptide:Unstimulated, cadherin 3, type 1, P-cadherin (placental) ([1]; AA425217): 0.43 | Ratio Peptide:Unstimulated, integrin, alpha E ([1]; AA425451): 180 | Ratio Peptide:Unstimulated, formyl peptide receptor 1 ([1]; AA425767): 3.1 | Ratio Peptide:Unstimulated, MAP kinase kinase 2 ([1]; AA425826): 1.20 | Ratio Peptide:Unstimulated, cytokine inducible SH2-containing protein ([1]; AA427521): 33 | Ratio Peptide:Unstimulated, integrin, beta 5 ([1]; AA434397): 0.32 | Ratio Peptide:Unstimulated, protein tyrosine phosphatase, non-receptor type 9 ([1]; AA434420): 3.5 | Ratio Peptide:Unstimulated, protein tyrosine phosphatase, non-receptor type 12 ([1]; AA446259): 2.3 | Ratio Peptide:Unstimulated, caspase 8, apoptosis-related cysteine protease ([1]; AA448468): 2.2 | Ratio Peptide:Unstimulated, growth factor receptor-bound protein 2 ([1]; AA449831): 2.2 | Ratio Peptide:Unstimulated, endothelin receptor type A ([1]; AA450009): 12 | Ratio Peptide:Unstimulated, integrin, alpha 1 ([1]; AA450324): 0.41 | Ratio Peptide:Unstimulated, Human proteinase activated R-2 ([1]; AA454652): 6.1 | Ratio Peptide:Unstimulated, IL-11 R alpha ([1]; AA454657): 2.4 | Ratio Peptide:Unstimulated, CSF 3 R ([1]; AA458507): 1.9 | Ratio Peptide:Unstimulated, integrin, alpha 10 ([1]; AA460959): 0.33 | Ratio Peptide:Unstimulated, MAP kinase kinase kinase 7 ([1]; AA460969): 0.97 | Ratio Peptide:Unstimulated, NK cell R ([1]; AA463248): 2.5 | Ratio Peptide:Unstimulated, integrin, alpha 2 (CD49B, alpha 2 subunit of VLA-2 receptor) ([1]; AA463257): 0.9 | Ratio Peptide:Unstimulated, IL-1 receptor, type I ([1]; AA464526): 0.34 | Ratio Peptide:Unstimulated, protein tyrosine phosphatase, receptor type, E ([1]; AA464542): 0.23 | Ratio Peptide:Unstimulated, protein tyrosine phosphatase, receptor type, N polypeptide 2 ([1]; AA464590): 0.02 | Ratio Peptide:Unstimulated, protein tyrosine phosphatase, receptor-type, Z polypeptide 1 ([1]; AA476461): 0.63 | Ratio Peptide:Unstimulated, intercellular adhesion molecule 3 ([1]; AA479188): 0.12 | Ratio Peptide:Unstimulated, protein tyrosine phosphatase, receptor type, C-associated protein ([1]; AA481547): 5.1 | Ratio Peptide:Unstimulated, IL-18 receptor 1 ([1]; AA482489): 0.50 | Ratio Peptide:Unstimulated, vitamin D R ([1]; AA485226): 2.5 | Ratio Peptide:Unstimulated, integrin, beta 4 ([1]; AA485668): 0.8 | Ratio Peptide:Unstimulated, IL-10 R beta ([1]; AA486393, listed as ID 2): 2.5 and 2.51 | Ratio Peptide:Unstimulated, calcium and integrin binding protein ([1]; AA487575): 2.8 | Ratio Peptide:Unstimulated, TRAF and TNF receptor-associated protein ([1]; AA488650): 0.75 | Ratio Peptide:Unstimulated, cytokine-inducible kinase ([1]; AA489234): 0.41 | Ratio Peptide:Unstimulated, small inducible cytokine subfamily A (Cys—Cys), member 18 ([1]; AA495985): 0.32 | Ratio Peptide:Unstimulated, programmed cell death 8 (apoptosis-inducing factor) ([1]; AA496348): 1.07 | Ratio Peptide:Unstimulated, melanoma adhesion molecule ([1]; AA497002): 7.9 | Ratio Peptide:Unstimulated, TNF receptor-associated factor 3 ([1]; AA504259): 0.15 | Ratio Peptide:Unstimulated, apoptosis-related protein PNAS-1 ([1]; AA521316): 2.2 | Ratio Peptide:Unstimulated, complement component receptor 2 ([1]; AA521362): 26 | Ratio Peptide:Unstimulated, laminin R 1 (67 kD, ribosomal protein SA) ([1]; AA629897): 0.4 | Ratio Peptide:Unstimulated, protein tyrosine phosphatase, receptor type, U ([1]; AA644448): 6.1 | Ratio Peptide:Unstimulated, integrin, beta 3 ([1]; AA666269): 2.6 | Ratio Peptide:Unstimulated, regulator of G-protein signaling 5 ([1]; AA668470): 0.27 | Ratio Peptide:Unstimulated, T cell R delta locus ([1]; AA670107): 2.7 | Ratio Peptide:Unstimulated, small inducible cytokine A3 (homologous to mouse Mip-1a) ([1]; AA677522): 1.79 | Ratio Peptide:Unstimulated, protein tyrosine phosphatase, non-receptor type 13 ([1]; AA679180): 1.7 | Ratio Peptide:Unstimulated, protein tyrosine phosphatase, non-receptor type 3 ([1]; AA682684): 1.0 | Ratio Peptide:Unstimulated, v-SNARE R ([1]; AA704511): 11 | Ratio Peptide:Unstimulated, adenosine A3 R ([1]; AA863086): 2.0 | Ratio Peptide:Unstimulated, integrin, alpha 9 ([1]; AA865557): 0.86 | Ratio Peptide:Unstimulated, small inducible cytokine subfamily B (Cys-X-Cys), member 10 ([1]; AA878880): 0.50 | Ratio Peptide:Unstimulated, interleukin enhancer binding factor 2 ([1]; AA894687): 1.3 | Ratio Peptide:Unstimulated, IL-2 receptor, alpha ([1]; AA903183): 0.41 | Ratio Peptide:Unstimulated, small inducible cytokine subfamily A (Cys—Cys), member 23 ([1]; AA916836): 0.38 | Ratio Peptide:Unstimulated, CD2 ([1]; AA927710, listed as ID 2): 2.6 and 2.62 | Ratio Peptide:Unstimulated, prostaglandin E receptor 1 (subtype EP1) ([1]; AA972293): 7.2 | Ratio Peptide:Unstimulated, IL-12 receptor, beta 2 ([1]; AA977194): 0.67 | Ratio Peptide:Unstimulated, protein tyrosine phosphatase, non-receptor type 11 ([1]; AA995560): 2.9 | Ratio Peptide:Unstimulated, integrin beta 4 binding protein ([1]; AI017019): 1.7 | Ratio Peptide:Unstimulated, VIP R 2 ([1]; AI057229): 3.1 | Ratio Peptide:Unstimulated, orphan seven-transmembrane receptor, chemokine related ([1]; AI131555): 1.06 | Ratio Peptide:Unstimulated, IL-1 R antagonist homolog 1 ([1]; AI167887, listed as ID 2): 3086 and 3085.96 | Ratio Peptide:Unstimulated, MAP kinase 8 interacting protein 2 ([1]; AI202738): 0.16 | Ratio Peptide:Unstimulated, disintegrin and metalloproteinase domain 18 ([1]; AI205675): 0.40
